The source of these data is patent US20260209705A1, “ENGINEERED NATURAL KILLER CELLS AND RELATED METHODS” (ASTELLAS PHARMA INC., priority 2022, published 2026).

The subject of experiment [1] is human PSC-derived engineered NK cells. Description: effect of UM171 on NK differentiation (Step 2). Format: cell-based. The settings on record: 35 nM UM171 versus no UM171. From the text:
FIGS. 2A-2C are bar graphs illustrating the cell yield (FIG. 2A), percentage of CD56+CD45^+ cells (FIG. 2B), and cell viability (FIG. 2C) resulting from the method of producing human PSC-derived engineered NK cells (FcR-UDC I-NK cells) described herein.
Parental and engineered UDC PSCs (collectively, “PSCs”) were thawed, expanded, and cultured in mTeSR™ (STEMCELL Technologies, Cambridge, MA) feeder-free, animal component-free media for up to seven days on vitronectin. The PSCs were dissociated into single cells and transferred into microwell plates and cultured in STEMdiff™ APEL™2 and Gibco® PFHM-II media (STEMCELL Technologies, Cambridge, MA; ThermoFisher Scientific, Waltham, MA) for fourteen days to differentiate into precursor cells (via embryoid bodies) capable of differentiating to hematopoietic cell types, endothelial cell types, and/or mesodermal derivatives. The media was supplemented with BMP4 (20 ng/ml), VEGF (20 ng/ml), and SCF (40 ng/ml). Half media changes were performed every other day starting on day 3. The embryoid bodies were replated on DLL4/Retronectin-coated T75 flasks to differentiate into NK cells. The embryoid bodies were cultured under feeder free conditions in differentiation media comprising SCF (20 ng/ml), IL-7 (20 ng/ml), IL-15 (10 ng/ml), Flt3L (10 ng/mL), IL-3 ([…]) and 35 nM UM171 for 21 days in modified DMEM/F12. […]

In another experiment the target is T1, claudin 6 (CLDN6) (UniProt P56747).
T1 sequence (looked up): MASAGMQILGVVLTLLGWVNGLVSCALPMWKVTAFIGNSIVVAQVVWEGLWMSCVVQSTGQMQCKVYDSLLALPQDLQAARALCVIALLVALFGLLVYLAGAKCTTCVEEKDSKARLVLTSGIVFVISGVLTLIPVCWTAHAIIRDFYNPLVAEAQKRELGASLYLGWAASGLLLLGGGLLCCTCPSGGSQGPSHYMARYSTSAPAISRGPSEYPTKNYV
Description: cell-based or functional assay.

Experiment [2] deals with Raji (Burkitt's lymphoma) cells. Description: Raji i.p. tumor model, study of FIG. 23 (Table 2). Format: in vivo, NSG mice. The settings on record: single agent alone, compared to untreated. As for the experimental part: FIG. 23 is a graphic of an efficacy study of FcR-UDC I-NK cells plus Rituximab in a Raji i.p. tumor model. NSG mice were irradiated and injected (i.p.) with Raji tumor cells (3×10^5). At day 4, FcR-UDC I-NK cells or PB-NK cells (each 5×10^6) with or without Rituximab (300 μg) was administered. At day 7, an additional dose of Rituximab (300 μg) was administered. Imaging/monitoring of the NSG mice occur at indicated time points through day 120.
FIGS. 24A-24C illustrate (FIG. 24A) a survival curve and (FIGS. 24B-24C) tumor burden following the efficacy study of FIG. 23. […] In FIGS. 24B-24C, FcR-UDC I-NK cells plus Rituximab and PB-NK plus Rituximab provided a durable response in delaying tumor onset through day 60 in 50% of the mice.
The efficacy of the UDC-NK cells against tumors in vivo was studied in a Raji intraperitoneal (i.p.) tumor model.
In FIG. 23, NSG mice were irradiated and injected i.p. with Raji (Burkitt's lymphoma) cells (3×10^5 cells). Raji cells are resistant to NK cells in the absence of an anti-CD20 antibody. At day four, 5×10^6 FcR-UDC I-NK cells and/or Rituximab (300 μg) was administered to the NSG mice. At day 7, a second dose of Rituximab (300 μg) was administered. […] The NSG mice were imaged and assessed for survival, BLI (tumor burden), and body weight and other health conditions at various days through day 121. […]

Take `Br.Br.Cn1nnc(-c2ccc3c(c2)[nH]c2nc(Cc4ccccc4)nc(N[C@H]4CC[C@H](N)CC4)c23)n1.O.O` [UM171, (1r,4r)-N1-(2-benzyl-7-(2-methyl-2H-tetrazol-5-yl)-9H-pyrimidol [4,5-b]indol-4-yl)cyclohexane-1,4-diamine dihydrobromide dihydrate]: the “UDC-NK cell yield during NK differentiation” value in experiment [1] is recorded as “improved UDC-NK cell yield”.

With ASP1893 mAb (antibody), the EC50 of ADCC (specific lysis of PA-1 cells by FcR-UDC I-NK cells, four-hour flow-based assay, antibody titrated) with claudin 6 (CLDN6) came out at 4.32 ng/mL.

With Rituximab, in experiment [2], the mean survival result is listed as “increased mean survival”.

B1: ASP1650 (antibody, from another filing, V domains shown)
VH: EVQLQQSGPELVKPGASMKISCKASGYSFTGYTMNWVKQSHGKNLEWIGLINPYNGGTIYNQKFKGKATLTVDKSSSTAYMELLSLTSEDSAVYYCARDYGFVLDYWGQGTTLTVSS
VL: IVLTQSPAIMSASPGEKVTITCSASSSVSYLHWFQQKPGTSPKLWVYSTSNLPSGVPARFGGSGSGTSYSLTISRMEAEDAATYYCQQRSIYPPWTFGGGTKLEIKR
B1 came in with an EC50 of ADCC (specific lysis of PA-1 cells by FcR-UDC I-NK cells, four-hour flow-based assay, antibody titrated) with claudin 6 (CLDN6) of 8.49 ng/mL.
